One data set deals with 22Rv1 cells. The data set can be described thus: Cell viability assay (Trypan Blue). The format is cell-based, human. Particulars: 48 h and 72 h. As for the experimental part: (§1) The viability of prostate cancer cells was determined using Trypan Blue (Sigma) per the manufacturer's instructions. Cells were grown in 6 well plates to a density of 1×10^5 cells/well to 75% confluency and treated with compound in 0.5% DMSO at the indicated concentrations for 24-72 h, with 0.5% DMSO as the vehicle control. After treatment, the cell media from each well was collected. The cells were washed with phosphate buffer saline (PBS), trypsinized, and collected. All of the cells, combined media, and washes were centrifuged at 250×g for 5 min. The supernatant was discarded, and the cell pellet was resuspended in 500 μL PBS. Trypan blue (10 μL) was added to 100 μL of resuspended cells, and the solution incubated for 10 min. The cell number in 10 μL was then counted using a hematocytometer. Viable cells (not stained) were distinguished from dead cells (colored blue) and the % viable cells calculated as follows: [(number of white cells)/(number of total cells (white+blue))]*100 and compared with untreated cells.^16

For another data set, the system named is LNCaP cells. In words: Cell viability assay (Trypan Blue). The format is cell-based, human. Particulars: 48 h and 72 h. Here is the method:
as §1

Data set [1] deals with PC-3 cells. In words: Cell viability assay (Trypan Blue). Particulars: 48 h and 72 h. The class given is cell-based, human. As for the experimental part: as §1
For another data set, the system named is BPH-1 cells. The data set can be described thus: Cell viability assay (Trypan Blue). The class given is cell-based. Particulars: BPH-1 normal prostate cells, 1-40 μM, 48 h. As for the experimental part: as §1
In data set [2] the test system is PC-3 cells. In words: Cell cycle analysis (PI, flow cytometry). Conditions: PC-3, 10 μM. The class given is cell-based, human. Here is the method: PC-3 cells were grown in T-75 flask to 75% confluency and treated with either 10 μM [D-Trp]CJ-15,208 in 0.5% DMSO or 0.5% DMSO as a vehicle control for 24-48 h. After treatment, the cell media was collected, the cells were washed with ice cold PBS twice, and the washes collected with the media. The cells were then trypsinized and the combined cells and media centrifuged at 1200 rpm for 5 min. The cell pellet was resuspended in PBS, the cells counted using a hematocytometer, and 1 million cells resuspended in 300 μL PBS. The cells were fixed with 700 μL ice cold 100% ethanol overnight and then centrifuged at 1200 rpm. Following removal of the ethanol, the cells were resuspended in 500 μL PBS containing 100 μg/mL RNAse and incubated for 30 min at room temperature. Propidium iodide (PI) solution (Sigma, 100 μg/mL) was added, and the solution then incubated for 30 min at room temperature in the dark. Cell cycle analysis^38 was performed using a Beckman-Coulter MoFlo XDP flow cytometer, and the cell cycle phase distribution was analyzed using FlowJo v10.1.
(§2) Each experiment was performed in triplicate unless otherwise stated in the figure legend. GraphPad Prism 5 was used to determine IC50 values. Data represent the mean value+/−SEM. Compound vs. vehicle treated cells in the cell cycle phase and apoptosis experiments (FIGS. 5-8) were compared using the student's t-test, with a two-tailed, unpaired method, using the Prism software. The effects of compound vs. vehicle treatment on protein levels (FIG. 10) were evaluated by one-way ANOVA with Dunnett's test for multiple comparisons.

For data set [3], the system named is PC-3 cells. The data set can be described thus: Annexin V-APC/PI apoptosis assay. The class given is cell-based, human. Conditions: PC-3, 10 μM. Here is the method:
(§3) The extent of apoptosis was analyzed by detecting surface expression of phosphatidylserine on apoptotic cells using an Annexin V-APC/PI dual staining apoptosis detection kit I (BD Biosciences) according to the manufacturer's protocol. Following treatment of PC-3 cells with 10 μM [D-Trp]CJ-15,208 or vehicle for 24 h or 48 h, the cells were collected, washed twice with cold PBS, and resuspended in 1× binding buffer at a concentration of 1×10^6 cells/mL. Cell suspension (100 μL) was transferred to a 5 ml culture tube, and 5 μL of Annexin V-APC and 25 μL of PI (50 μg/mL) were added. The cells were incubated for 15 min at room temperature in the dark with gentle vortexing, 400 μL of 1× binding buffer was then added to each sample, and the samples were analyzed using a Beckman-Coulter MoFlo XDP flow cytometer within one hour. The number of viable, apoptotic and necrotic cells were quantified using FlowJo v10.0.7. The apoptosis fraction (%) was calculated as (number of apoptotic cells/the number of total cells observed)×100%.^38
as §2

In data set [4] the test system is siRNA-transfected PC-3 cells. In words: c-Myc knockdown, Annexin V-APC/PI apoptosis assay. The class given is cell-based, human. Particulars: 10 μM, 48 h. Here is the method:
as §3
PC-3 cells were seeded at a density of 2×10^6 cells in 10 cm plates and grown to 75-85% confluence in EMEM supplemented with 10% FBS and penicillin/streptomycin. […] Samples were analyzed using a BD FACSCanto-II cell analyzer and quantified in FlowJo v10.2. […]

The conditions of data set [5]: cited from earlier work.

Non-standard residues stand in square brackets, D forms with d. Residues, ends and D or L forms follow the SMILES beside them.

Consider `O=C1N[C@H](Cc2c[nH]c3ccccc23)C(=O)N[C@@H](Cc2ccccc2)C(=O)N2CCC[C@@H]2C(=O)N[C@H]1Cc1ccccc1` [[D-Trp]CJ-15,208, cyclo[Phe-D-Pro-Phe-D-Trp]] (cyclo(F[dP]F[dW])), for which the “cell death (Trypan blue)” value was “resulted in cell death” in the data set with 22Rv1 cells, “resulted in cell death” with LNCaP cells, “resulted in cell death” in the data set with PC-3 cells [1] and “no evidence of cell death” with BPH-1 cells. Further, the “cell population in G2 phase” value with PC-3 cells [2] (24 h) is 42±4%; in the data set with PC-3 cells [2] (48 h), 58±4%. Also, the “mean cell distribution in S phase” value is 26±4% in the data set on PC-3 cells [2] (24 h) and 12±0.6% with PC-3 cells [2] (48 h). Further, the “mean cell population in G1 phase” value in the data set with PC-3 cells [2] (24 h) amounted to 32±1%; with PC-3 cells [2] (48 h), 31±6%. Further, the “cells accumulated in G2 phase compared to vehicle treated control cells” value in the data set on PC-3 cells [2] (24 h or 48 h) is “at least 8 fold”. For the same compound, the “number of cells in early or late apoptosis” value with PC-3 cells [3] (24 h) is reported as “No significant change”. Moreover, the “increase of number of cells in early apoptosis vs. vehicle” value with PC-3 cells [3] (48 h) is on record as 10 fold. Also, the “increase of number of cells in late apoptosis vs. vehicle” value with PC-3 cells [3] (48 h) came to 3 fold. Besides, the early apoptosis entry in data set [4] (PC-3 transfected with nontargeting siRNA) was “significantly increased early apoptosis”; in data set [4] (PC-3 transfected with siRNA against c-Myc) it was “did not significantly affect”. Also, the “activity after oral administration” value in data set [5] is “active after oral administration”.

Source of the values: US11510964B2, “Macrocyclic peptides to decrease c-Myc protein levels and reduce cancer cell growth” (University of Kansas, priority 2017, dated 2022).
